Measured values reported in patent US11084841B1, “Chitooligosaccharide-N-geraniol derivatives, methods for preparing and application thereof” (Jiangnan University, priority 2020, dated 2021).

Assays:
Escherichia coli = experiment: antibacterial activity test, culture plate with antibacterial substance; format: cell-based; conditions: 1 mg/ml antibacterial substance, 37° C., 24 hours, versus control plate, FIG. 6
Experimental: (§1) Gram negative and positive bacterium (Escherichia coli and Staphylococcus aureus) are selected for the antibacterial activity test. The bacteria strain was selected to grow in LB culture medium and sub-culture to the second generation in logarithmic phase. The bacterial suspension was diluted to the required concentration (10^5 CFU/ml) with normal saline. Under the aseptic condition, the bacterial solution and antibacterial substance solution (mix 5 μL bacterial solution and 5 mL LB liquid medium containing 1 mg/ml antibacterial substance) were added onto the culture plate and mixed evenly. The control group was the culture plate without antibacterial substance, and then the culture plates were incubated at 37° C. for 24 hours to observe the growth of bacteria.

Staphylococcus aureus = experiment: as above; format: cell-based; conditions: 1 mg/ml antibacterial substance, 37° C., 24 hours, versus control plate, FIG. 5
Experimental: as §1

CC(C)=CCC/C(C)=C/CO [Ger, (2E)-3,7-dimethylocta-2,6-dien-1-ol]
inhibition of bacterial growth (Escherichia coli): able to inhibit
inhibition of bacterial growth (Staphylococcus aureus): able to inhibit
